# Reference: PubChem BioAssay (NCI)
#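 Values below derive from 48-hour exposures of cells grown in 96-well plates, with endpoints linearly interpolated between the two concentrations bracketing the appropriate inhibition level. Definition used: TGI = concentration required for complete inhibition of growth.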
# Legend:
# Assay in all cases: growth of human tumour cells (NCI), 48 h
# CCRF-CEM leukemia = system: CCRF-CEM leukemia
# HCC-2998 colon = system: HCC-2998 colon
# HCT-15 colon = system: HCT-15 colon
# MALME-3M melanoma = system: MALME-3M melanoma
# SF-539 CNS = system: SF-539 CNS
# SF-295 CNS = system: SF-295 CNS
# DLD-1 colon = system: DLD-1 colon
# KM20L2 colon = system: KM20L2 colon
# DMS 273 small cell lung = system: DMS 273 small cell lung
# MCF7 breast = system: MCF7 breast
# M19-MEL melanoma = system: M19-MEL melanoma
# HS 578T breast = system: HS 578T breast
Structure (SMILES),TGI (CCRF-CEM leukemia) [µM],TGI (HCC-2998 colon) [µM],TGI (HCT-15 colon) [µM],TGI (MALME-3M melanoma) [µM],TGI (SF-539 CNS) [µM],TGI (SF-295 CNS) [µM],TGI (DLD-1 colon) [µM],TGI (KM20L2 colon) [µM],TGI (DMS 273 small cell lung) [µM],TGI (MCF7 breast) [µM],TGI (M19-MEL melanoma) [µM],TGI (HS 578T breast) [µM]
COc1c(Cl)cc(NC(=S)C#N)cc1Cl,> 100,32.6,46.8,59.6,59,> 79.9,> 100,54.4,83.2,92.9,50.2,–
COc1c2c(nc3ccccc13)-c1cc3c(c(=O)n1C2)COC(=O)C3(O)CC(=O)N1CCOCC1 (stereo not drawn),3.95,75.8,> 100,> 100,5.8,31.7,> 100,> 100,12.4,> 44.4,44.8,> 88.8
CCOC(=O)NC(=O)c1cn(CCCCCCOC(=O)NCCCCCCNC(=O)OCCCCCCn2cc(C(=O)NC(=O)OCC)c(=O)[nH]c2=O)c(=O)[nH]c1=O,> 100,> 100,> 100,> 100,> 100,> 100,> 100,> 100,> 100,–,> 100,–
COC(=O)c1cc(Cl)ccc1NC(=O)c1ccc([N+](=O)[O-])cc1,80.4,> 100,> 100,90.6,49.1,6.1,> 100,76.8,77.3,–,> 100,–
O=CN/C=C/c1ccc(O)c(O)c1,> 100,> 100,> 100,> 100,> 100,> 100,> 100,> 100,> 100,–,> 100,–
CN(/N=C/c1cccc2cccnc12)c1ccccc1,> 100,> 100,> 100,> 100,> 100,> 100,> 100,> 100,> 100,–,> 100,–
CC1=C2C(=CC(C)(C)C2O)C(=O)C(C)(O)C12CC2 (stereo not drawn),0.126,0.0268,0.151,0.0337,0.0604,0.0342,0.0447,0.0522,0.025,–,0.0861,–
